In US12049638B2, “Synthetic genetic elements for biomanufacture” (Janssen Biotech, Inc., priority 2019, dated 2024):

B1: SR21 recombinase: putative serine recombinase from Bacillus safensis strain CCMA-560, SEQ ID NO:2, expressed from plasmid P175 (protein)
chain: MELKHIVNSYNVTKIIGYLRRSRQDVEREKRTGEDTLTEQKELMNKILTGIEIPYETRTEIGSGESIEGRPVFKSCLADLRSGKFQAIAVKEITRLSRGSYSDAGEIVNLLNEKRIIIITPYKIYDPRNPVDARQIRFELFMAREEFEMTRERMNGAKFTYAAQGKWISGLAPFGYKLNKRTSRLEPSDEDKVVVKLIFDIFLNGLDGKDLSYTAIATHLSKLQFTTPRGGKRWSKDTVRKILQNEAYMGRVRYKARETTKDGKKVFRPESEHIVVDDAHEPIINKEDFEAVQEKIKNKVPLLPVVTSYEPNELAGICVCSVCGKSLQKFESEYNRKNKDGTSSYFHVKLLICKINKCTSVRYEYVEEAILEYLEQLIALENNKLKAIIEKSMEAAETNNSEKTSEQMLVQANQKQKELENKLTFIFEKFESGIYTDEMFLQRKAAIEKEVADIKKLKQELSMTFEVKEKDVNEFRVNISDVVKFYKESKSRGLKNEKLRSIFDFIVLEMTEKRRGPIPAKFNIYPVLRIPSVVN
modifications: SR21 Recombinase (WP_029708089.1) Protein Sequence

Assays:
adenovirus infection = settings: cited from earlier work
P600-PEAK-Rapid cells = assay: AAV production from P600 stable pool after Ad5-CMV-SR21 infection, with 2-aminopurine, ddPCR mCherry assay; format: cell-based, human
Protocol: ddPCR quantitation was based on the method described by Lock et al. (2014) Human Gene Therapy methods 23: 115-125. Two 1 of the lysate was DNAse digested in 20 reactions containing 1× PCR buffer+20 mM Tris pH 8.5+8 units DNAse I at 37° C. for 1 hour 96-well plates in a thermocycler. 2 μl of the DNAse digested samples were diluted with 98 Virus Dilution Buffer (VDB) and 2 μl of this dilution was added to ddPCR reactions containing 1× PCR SuperMix+1× PCR Primer/Probe for the mCherry transgene (See Materials section). ddPCR droplets were formed using the Bio-Rad automated droplet maker. PCR cycling was as follows: 95° C. 10 min; 42× (94° C. 30s, 60° C. 1 min, 72° C. 15s all three at cycling time of 2° C. per s); 98° C. 10 min; 4° C. hold. FAM fluorescence was detected on the Bio-Rad droplet reader as per manufacturer's instructions. The clones that produced the highest DNAse-resistant particles as detected as FAM-fluorescence positive droplets were subjected to expansion and further screening.
Construct P600 was transfected into Peak-RAPID cells and a stable pool was generated through selection with 0.5 μg/ml puromycin essentially as described for P439 cells above. Cells were passed 1:10 for 6 weeks prior to assaying AAV production.
2.5E6 P600-PEAK-Rapid p6 cells were plated into three T25 flasks in 5 mls DMEM+10% FBS and incubated for three days at 37° C. The cells density on the day of infection was determined to be 6.6E6 viable cells in one of the flasks where cells were recovered with TrypLE and counted using Trypan blue exclusion. Media in the two remaining flasks were replaced with […] DMEM+2% FBS containing 2.6E8 Ad5-CMV-SR21 virus particles. The flasks were incubated for 24 hours at 32° C. […] One ml of DMEM+2% FBS was added to the other flask, and both flasks were incubated at 32° C. for 7 additional days. Media was recovered from the flasks, centrifuged at 3,000 rpm for 5 minutes to pellet cells and debris. 2 μl of each sample supernatant was subjected to DNAse digestion and ddPCR quantitation using the mCherry assay as described above.

[1] = test system: Stop Cassette of vector P439 (attP/attB); assay: Stop Cassette removal by SR21 Recombinase, co-transfection of P439 and P175, PCR and sequencing; format: cell-based, human; settings: PEAK-Rapid cells, three days; PCR product sequenced; attL produced
Protocol: Media was removed, cells were washed once with D-PBS and then incubated with TrypLE for 5 minutes at 37° C. Cells were transferred to a sterile microfuge tube, pelleted by centrifugation, washed once with 1 ml D-PBS and pelleted again. Episomal plasmids were recovered by alkaline lysis using the Qiagen Spin Miniprep kit designed for isolating plasmids from bacteria.
To destroy unrecombined plasmid DNA, an aliquot of the recovered DNA was digested with enzyme Spe I-HF in 1× CutSmart Buffer at 37° C. Ihour and 80° C. 20 minutes. The recovered DNA was subjected to PCR amplification with primers P349F3 (SEQ ID NO:32) and P349R9 (SEQ ID NO:33) using NEXT Ultra II Q5 Master Mix with the following cycling conditions: 98° C. 1 min; 35× (98° C. 10s, 72° C. 10s); 5 min 72° C. A single PCR product of the predicted size was observed when subjected to electrophoresis on a 1% agarose gel. The PCR product was purified by size exclusion chromatography using a CHROMA SPIN™+TE-1000 Column. The PCR product was sequenced using the same primers used for PCR (GeneWiz).

[2] = test system: recombinase reporter plasmid (P41) with SR21 attP and attB signals; assay: Recombinase reporter assay (Dual Glo firefly/Renilla luciferase) in transfected HEK293 cells; format: cell-based, human
Excerpt: A vector (P175) (SEQ ID NO:10) was constructed by Gene Synthesis (GENEWIZ, Plainfield, N.J.) to express SR21 recombinase in mammalian cells under control of the CMV promoter and followed by an SV40 polyadenylation signal. The SR21 recombinase open reading frame is the same as SEQ ID NO:3 except that the bacterial translation initiation codon “TTG” is replaced by an “ATG”, and three point-mutations were introduced to destroy restriction endonuclease recognition sites.
A recombinase reporter plasmid (P41) was also constructed by gene synthesis (GENEWIZ, Plainfield, N.J.) (SEQ ID NO:11; FIG. 4). It encodes a constitutively expressed green fluorescent protein (GFP)—self-cleaving F2A—Renilla luciferase (rLUC) fusion protein driven by the EF1α promoter. It also encodes recombinase activated—mCherry-self cleaving P2A-firefly luciferase (fLUC) reporter gene flanked by SR21 attP (SEQ ID NO:7) and attB (SEQ ID NO:9) signals in the antisense orientation relative to the CMV promoter. When SR21 recombinase recombines the attP and attB signals, the coding region is inverted into the sense orientation and the mCherry-P2A-fLUC protein is expressed (See FIG. 4).
To measure SR21 recombinase activity in human cells, 75,000 HEK293 cells were plated into each well of 96-well tissue culture plates in 100 of high-glucose DMEM+10% Fetal Bovine Serum. The recombinase reporter plasmid (P041) the SR21 Recombinase expression plasmid (P175)+[…] (to normalize DNA amounts) were complexed with Fugene-HD transfection reagent in OptiMEM medium for 15 minutes at room temperature as shown in Table 1 and transfected into triplicate wells of the plated cells. Plates were incubated at 37° C. for 48 hours.
Firefly Luciferase (fLUC) and Renilla luciferase (rLUC) was assayed sequentially in transfected wells using the Dual Glo assay kit from Promega. Medium was removed from the transfected wells of the tissue culture plate and 100 μl of a 1:1 mixture of DMEM medium (without phenol red) and the Dual Glo luciferase+fLUC substrate was added. The plate was incubated at room temperature for 10 minutes. The lysate was transferred to an opaque white 96-well plate. fLUC activity was measured using the Envision multilabel reader. Next, 50 μl per well of the Stop-and-Glo buffer+Renilla substrate was added and the plate was incubated with gentle shaking for 10 minutes. The Renilla luciferase signal was read on the same Envision reader.

Row | Molecule | cytopathic effect of adenovirus infection (adenovirus infection; 10 mM 2-AP treatment 1-2 hours post infection) | toxicity to cells (adenovirus infection; 10 mM 2-AP, for at least three days) | AAV GC/Cell (P600-PEAK-Rapid cells; DMEM + 2% FBS + 1.25 mM 2-AP added 24 hours post infection, 32° C., 7 additional days, media) | effect on AAV production (P600-PEAK-Rapid cells; concentrations above 1.25 mM and addition earlier than 24 hours) | increase in AAV virus production (P600-PEAK-Rapid cells; in the presence of 2-aminopurine versus without, P600 stable pool) | removal of STOP cassette from plasmid P439 by recombining attP and attB [1] | rLUC ([2]; 100 ng P41 reporter + 100 ng P175, 48 hours, constitutive Renilla luciferase (transfection efficiency)) | fLUC ([2]; 100 ng P41 reporter + 100 ng P175 recombinase expression plasmid, 48 hours) | Fold-Increase in fLUC Activity ([2]; reporter + recombinase expression plasmid versus reporter + deoxynucleotides) | SR21 recombinase activity in human cells ([2]; representative of three independent experiments)
1 | Nc1ncc2[nH]cnc2n1 [2-AP, 2-aminopurine] | blocked | nontoxic | 59,356 ± 11,026 GC/Cell | inhibitory | 2.5 fold | – | – | – | – | –
2 | B1 | – | – | – | – | – | precisely removed | 3.4E06 ± | 6.6E06 ± | 1535 fold | highly active
